Measurements taken from patent US8481584B2, “1H-thieno[2,3-c]pyrazole derivatives useful as kinase inhibitors” (Nerviano Medical Sciences S.R.L., priority 2004, dated 2013).
pIC50: −log10 of the molar value.

Target: T1, Aurora-2 (Homo sapiens, UniProt O14965)
T1 sequence (O14965 1-403): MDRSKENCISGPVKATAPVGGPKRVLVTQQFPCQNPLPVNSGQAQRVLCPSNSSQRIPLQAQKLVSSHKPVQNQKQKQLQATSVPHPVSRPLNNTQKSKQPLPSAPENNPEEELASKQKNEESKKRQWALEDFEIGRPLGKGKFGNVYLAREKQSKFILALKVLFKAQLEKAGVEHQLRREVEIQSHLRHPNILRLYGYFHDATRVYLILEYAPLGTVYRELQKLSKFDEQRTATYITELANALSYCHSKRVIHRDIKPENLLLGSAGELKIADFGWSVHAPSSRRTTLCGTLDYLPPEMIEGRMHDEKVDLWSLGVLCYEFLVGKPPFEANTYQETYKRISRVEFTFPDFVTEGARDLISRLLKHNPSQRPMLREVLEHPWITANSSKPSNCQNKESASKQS
Assay: Inhibition assay of Aurora-2 activity (SPA technology)
Format: biochemical
Details: screened according to the methods of the pharmacology section; read-out: IC50 values for Aurora-2 inhibition
Description: The inhibiting activity and the potency of selected compounds is determined through a method of assay based on the use of the SPA technology (Amersham Pharmacia Biotech).
The assay consists of the transfer of radioactivity labelled phosphate moiety by the kinase to a biotinylated substrate. The resulting 33P-labelled biotinylated product is allowed to bind to streptavidin-coated SPA beads (biotin capacity 130 pmol/mg), and light emitted was measured in a scintillation counter.
Inhibition Assay of Aurora-2 Activity
After 60 minutes at room temperature incubation, reaction was stopped and biotinylated peptide captured by adding 100 μl of bead suspension.
Stratification: 100 μl of CsCl2 5 M were added to each well and let stand 4 hour before radioactivity was counted in the Top-Count instrument.
Experimental data were analyzed by the computer program GraphPad Prizm using the four parameter logistic equation: y=bottom+(top−bottom)/(1+10^((logIC50−x)*slope)) where x is the logarithm of the inhibitor concentration, y is the response; y starts at bottom and goes to top with a sigmoid shape.

Row | SMILES | pIC50
1 | CC[C@@H](NC(=O)c1cc2c(NC(=O)c3ccc(N4CCOCC4)cc3)n[nH]c2s1)c1ccccc1 [Compound 4, 3-[(4-morpholin-4-ylbenzoyl)amino]-N-[(1R)-1-phenylpropyl]-1H-thieno[2,3-c]pyrazole-5-carboxamide] | > 7.70
2 | O=C(Nc1n[nH]c2sc(C(=O)N[C@H](CN3CCOCC3)c3ccccc3)cc12)c1ccc(N2CCOCC2)cc1 [Compound 6, 3-[(4-morpholin-4-ylbenzoyl)amino]-N-[(1S)-2-morpholin-4-yl-1-phenylethyl]-1H-thieno[2,3-c]pyrazole-5-carboxamide] | > 7.70
3 | O=C(Nc1n[nH]c2sc(C(=O)NC3(c4ccccc4)CC3)cc12)c1ccc(F)cc1 [Compound 7, 3-[(4-fluorobenzoyl)amino]-N-(1-phenylcyclopropyl)-1H-thieno[2,3-c]pyrazole-5-carboxamide] | > 7.70
4 | CC(C)(NC(=O)c1cc2c(NC(=O)c3ccc(F)cc3)n[nH]c2s1)c1ccccc1 [Compound 8, 3-[(4-fluorobenzoyl)amino]-N-(1-methyl-1-phenylethyl)-1H-thieno[2,3-c]pyrazole-5-carboxamide] | > 7.70
5 | CC[C@@H](NC(=O)c1cc2c(NC(=O)c3ccc(F)cc3)n[nH]c2s1)c1ccccc1 [Compound 9, 3-[(4-fluorobenzoyl)amino]-N-[(1R)-1-phenylpropyl]-1H-thieno[2,3-c]pyrazole-5-carboxamide] | > 7.70
6 | C[C@@H](NC(=O)c1cc2c(NC(=O)c3ccc(F)cc3)n[nH]c2s1)c1ccc(F)cc1 [Compound 11, 3-[(4-fluorobenzoyl)amino]-N-[(1R)-1-(4-fluorophenyl)ethyl]-1H-thieno[2,3-c]pyrazole-5-carboxamide] | > 7.70
7 | O=C(Nc1n[nH]c2sc(C(=O)N[C@H](CN3CCOCC3)c3ccccc3)cc12)c1cccs1 [Compound 15, N-[(1S)-2-morpholin-4-yl-1-phenylethyl]-3-[(thien-2-ylcarbonyl)amino]-1H-thieno[2,3-c]pyrazole-5-carboxamide] | > 7.70
8 | C[C@@H](NC(=O)c1cc2c(NC(=O)c3cccs3)n[nH]c2s1)c1ccc(F)cc1 [Compound 17, N-[(1R)-1-(4-fluorophenyl)ethyl]-3-[(thien-2-ylcarbonyl)amino]-1H-thieno[2,3-c]pyrazole-5-carboxamide] | > 7.70
9 | O=C(Nc1n[nH]c2sc(C(=O)NC3(c4ccccc4)CC3)cc12)c1cccs1 [Compound 18, N-(1-phenylcyclopropyl)-3-[(thien-2-ylcarbonyl)amino]-1H-thieno[2,3-c]pyrazole-5-carboxamide] | > 7.70
10 | O=C(Nc1n[nH]c2sc(C(=O)N[C@H](CN3CCCC3)c3ccccc3)cc12)c1cccs1 [Compound 19, N-[(1S)-1-phenyl-2-pyrrolidin-1-ylethyl]-3-[(thien-2-ylcarbonyl)amino]-1H-thieno[2,3-c]pyrazole-5-carboxamide] | > 7.70
11 | CC[C@@H](NC(=O)c1cc2c(NC(=O)c3cccs3)n[nH]c2s1)c1ccccc1 [Compound 20, N-[(1R)-1-phenylpropyl]-3-[(thien-2-ylcarbonyl)amino]-1H-thieno[2,3-c]pyrazole-5-carboxamide] | > 7.70
12 | Cn1cccc1C(=O)Nc1n[nH]c2sc(C(=O)NC(C)(C)c3ccccc3)cc12 [Compound 21, N-(1-methyl-1-phenylethyl)-3-{[(1-methyl-1H-pyrrol-2-yl)carbonyl]amino}-1H-thieno[2,3-c]pyrazole-5-carboxamide] | > 7.70
13 | Cn1cccc1C(=O)Nc1n[nH]c2sc(C(=O)NC3(c4ccccc4)CC3)cc12 [Compound 22, 3-{[(1-methyl-1H-pyrrol-2-yl)carbonyl]amino}-N-(1-phenylcyclopropyl)-1H-thieno[2,3-c]pyrazole-5-carboxamide] | > 7.70
14 | O=C(Nc1n[nH]c2sc(C(=O)NC3(c4ccccc4)CC3)cc12)c1ccco1 [Compound 23, 3-(2-furoylamino)-N-(1-phenylcyclopropyl)-1H-thieno[2,3-c]pyrazole-5-carboxamide] | > 7.70
15 | CC(C)(NC(=O)c1cc2c(NC(=O)c3ccco3)n[nH]c2s1)c1ccccc1 [Compound 24, 3-(2-furoylamino)-N-(1-methyl-1-phenylethyl)-1H-thieno[2,3-c]pyrazole-5-carboxamide] | > 7.70
16 | CN1CCC(Oc2ccc(C(=O)Nc3n[nH]c4sc(C(=O)NC(C)(C)c5ccccc5)cc34)cc2)CC1 [Compound 25, N-(1-methyl-1-phenylethyl)-3-({4-[(1-methylpiperidin-4-yl)oxy]benzoyl}amino)-1H-thieno[2,3-c]pyrazole-5-carboxamide] | > 7.70
17 | CN1CCN(Cc2ccc(C(=O)Nc3n[nH]c4sc(C(=O)NC(C)(C)c5ccccc5)cc34)cc2)CC1 [Compound 27, N-(1-methyl-1-phenylethyl)-3-({4-[(4-methylpiperazin-1-yl)methyl]benzoyl}amino)-1H-thieno[2,3-c]pyrazole-5-carboxamide] | > 7.70
18 | CC[C@@H](NC(=O)c1cc2c(NC(=O)c3ccc(N4CCN(C)CC4)cc3)n[nH]c2s1)c1ccccc1 [Compound 30, 3-{[4-(4-methylpiperazin-1-yl)benzoyl]amino}-N-[(1R)-1-phenylpropyl]-1H-thieno[2,3-c]pyrazole-5-carboxamide] | > 7.70
19 | CN1CCN(c2ccc(C(=O)Nc3n[nH]c4sc(C(=O)N[C@H](CN5CCOCC5)c5ccccc5)cc34)cc2)CC1 [Compound 31, 3-{[4-(4-methylpiperazin-1-yl)benzoyl]amino}-N-[(1S)-2-morpholin-4-yl-1-phenylethyl]-1H-thieno[2,3-c]pyrazole-5-carboxamide] | > 7.70
20 | CN1CCN(c2ccc(C(=O)Nc3n[nH]c4sc(C(=O)N[C@H](CN5CCCC5)c5ccccc5)cc34)cc2)CC1 [Compound 32, 3-{[4-(4-methylpiperazin-1-yl)benzoyl]amino}-N-[(1S)-1-phenyl-2-pyrrolidin-1-ylethyl]-1H-thieno[2,3-c]pyrazole-5-carboxamide] | > 7.70
21 | CCC(CC)(NC(=O)c1cc2c(NC(=O)c3ccc(N4CCN(C)CC4)cc3)n[nH]c2s1)c1ccccc1 [Compound 33, N-(1-ethyl-1-phenylpropyl)-3-{[4-(4-methylpiperazin-1-yl)benzoyl]amino}-1H-thieno[2,3-c]pyrazole-5-carboxamide] | > 7.70
22 | CN1CCN(c2ccc(C(=O)Nc3n[nH]c4sc(C(=O)NC5(c6ccccc6)CCCC5)cc34)cc2)CC1 [Compound 34, 3-{[4-(4-methylpiperazin-1-yl)benzoyl]amino}-N-(1-phenylcyclopentyl)-1H-thieno[2,3-c]pyrazole-5-carboxamide] | > 7.70
23 | CN1CCN(c2ccc(C(=O)Nc3n[nH]c4sc(C(=O)NC5(c6ccccc6)CC5)cc34)cc2)CC1 [Compound 35, 3-{[4-(4-methylpiperazin-1-yl)benzoyl]amino}-N-(1-phenylcyclopropyl)-1H-thieno[2,3-c]pyrazole-5-carboxamide] | > 7.70
24 | CC(C)(NC(=O)c1cc2c(NC(=O)c3ccc(CN4CCCC4)cc3)n[nH]c2s1)c1ccccc1 [Compound 37, 3-(4-Pyrrolidin-1-ylmethyl-benzoylamino)-1H-thieno[2,3-c]pyrazole-5-carboxylic acid (1-methyl-1-phenyl-ethyl)-amide] | > 7.70
25 | CC(C)(NC(=O)c1cc2c(NC(=O)c3ccc(CN4CCOCC4)cc3)n[nH]c2s1)c1ccccc1 [Compound 38, 3-(4-Morpholin-4-ylmethyl-benzoylamino)-1H-thieno[2,3-c]pyrazole-5-carboxylic acid (1-methyl-1-phenyl-ethyl)-amide] | > 7.70
